Experimental data: US7348332B2, “(3,4-dihydro-quinazolin-2-yl)-indan-1-yl-amines” (Hoffmann-La Rochse Inc., priority 2005, dated 2008)

What follows are compounds tested against T1, recombinant human 5-HT5A receptor (Homo sapiens, UniProt P47898) (assay: [3H]LSD radioligand binding assay, membranes from HEK-EBNA cells transiently expressing 5-HT5A receptors). Conditions: [3H]LSD approximately 1 nM; HEK-EBNA cell membranes; SPA beads; 120 min at room temperature; Ki from IC50 by Cheng-Prussoff equation.
T1 construct: expressed in transfected cells; host or cells: HEK-EBNA (Human Embryonic Kidney-EBNA) cells, transient cDNA expression; membranes
Description: A [^3H]LSD radioligand binding assay was used to determine the affinity of the compounds for the recombinant human 5-HT5A receptor, in membranes from transiently (cDNA) expressed 5-HT5A receptors in Human Embryonic Kidney-EBNA (HEK-EBNA) cells. Assay buffer consisted of Tris (50 mM) buffer containing 1 mM EGTA, 10 mM MgCl2 (pH 7.4) and 10 μM pargyline. The binding assay was carried out in 96-well-plates in the presence of [^3H]LSD (approximately 1 nM), approximately 2 μg/well of membrane protein, and 0.5 mg of Ysi-poly-1-lysine SPA beads in a final volume of 200 μl of buffer. Non-specific binding was defined using methiothepin 2 μM. Compounds were tested at 10 concentrations. All assays were conducted in duplicate and repeated at least two times. Assay plates were incubated for 120 min at room temperature before centrifugation. Bound ligand was determined using a Packard Topcount scintillation counter. IC50 values were calculated using a non-linear curve fitting program and Ki values calculated using the Cheng-Prussoff equation.

T1 sequence (P47898 whole entry): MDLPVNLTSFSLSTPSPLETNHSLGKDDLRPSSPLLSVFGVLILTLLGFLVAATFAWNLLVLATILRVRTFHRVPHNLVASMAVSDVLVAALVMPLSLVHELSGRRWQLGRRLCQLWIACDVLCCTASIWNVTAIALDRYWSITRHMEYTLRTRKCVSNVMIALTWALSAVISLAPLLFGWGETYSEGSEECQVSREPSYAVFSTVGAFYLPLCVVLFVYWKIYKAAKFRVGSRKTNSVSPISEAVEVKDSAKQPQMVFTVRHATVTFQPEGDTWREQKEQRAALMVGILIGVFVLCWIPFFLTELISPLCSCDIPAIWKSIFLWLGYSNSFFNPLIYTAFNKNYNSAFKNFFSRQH

SMILES	Ki
Clc1ccc(Cl)c(C2NC(NC3CCc4ccccc43)=Nc3ccccc32)c1 (stereo in doubt) [Example 19, [4-(2,5-Dichloro-phenyl)-3,4-dihydro-quinazolin-2-yl]-(S)-indan-1-yl-amine]	550 nM
Clc1ccc(Cl)c(C2NC(NC3CCc4ccccc43)=Nc3ccccc32)c1 (stereo in doubt) [Example 20, [4-(2,5-Dichloro-phenyl)-3,4-dihydro-quinazolin-2-yl]-(R)-indan-1-yl-amine]	550 nM
Clc1ccc2c(c1)C(c1ccccc1Cl)NC(NC1CCc3ccccc31)=N2 (stereo in doubt) [Example 21, [6-Chloro-4-(2-chloro-phenyl)-3,4-dihydro-quinazolin-2-yl]-(S)-indan-1-yl-amine]	595 nM
Clc1ccc2c(c1)C(c1ccccc1Cl)NC(NC1CCc3ccccc31)=N2 (stereo in doubt) [Example 22, [6-Chloro-4-(2-chloro-phenyl)-3,4-dihydro-quinazolin-2-yl]-(R)-indan-1-yl-amine]	655 nM
Clc1cccc2c1CNC(NC1CCc3ccccc31)=N2 (centres unmarked) [Example 2, (5-Chloro-3,4-dihydro-quinazolin-2-yl)-indan-1-yl-amine]	32 nM
Cc1cccc2c1N=C(NC1CCc3ccccc31)NC2 (centres unmarked) [Example 3, Indan-1-yl-(8-methyl-3,4-dihydro-quinazolin-2-yl)-amine]	32 nM
Fc1ccc2c(c1)CNC(NC1CCc3ccccc31)=N2 (centres unmarked) [Example 4, (6-Fluoro-3,4-dihydro-quinazolin-2-yl)-indan-1-yl-amine]	35 nM
Clc1ccc2c(c1Cl)CNC(NC1CCc3ccccc31)=N2 (centres unmarked) [Example 5, (5,6-Dichloro-3,4-dihydro-quinazolin-2-yl)-indan-1-yl-amine]	39 nM
Fc1cccc2c1CNC(NC1CCc3ccccc31)=N2 (centres unmarked) [Example 6, (5-Fluoro-3,4-dihydro-quinazolin-2-yl)-indan-1-yl-amine]	48 nM
Cc1ccc2c(c1)CNC(NC1CCc3ccccc31)=N2 (centres unmarked) [Example 7, Indan-1-yl-(6-methyl-3,4-dihydro-quinazolin-2-yl)-amine]	50 nM
Cc1cccc2c1CNC(NC1CCc3ccccc31)=N2 (centres unmarked) [Example 8, Indan-1-yl-(5-methyl-3,4-dihydro-quinazolin-2-yl)-amine]	55 nM
COc1ccc2c(c1)CNC(NC1CCc3ccccc31)=N2 (centres unmarked) [Example 11, Indan-1-yl-(6-methoxy-3,4-dihydro-quinazolin-2-yl)-amine]	125 nM
Clc1ccc2c(c1)N=C(NC1CCc3ccccc31)NC2 (centres unmarked) [Example 12, (7-Chloro-3,4-dihydro-quinazolin-2-yl)-indan-1-yl-amine]	174 nM
FC(F)(F)c1ccc2c(c1)N=C(NC1CCc3ccccc31)NC2 (centres unmarked) [Example 13, Indan-1-yl-(7-trifluoromethyl-3,4-dihydro-quinazolin-2-yl)-amine]	260 nM
COc1ccc2c(c1)N=C(NC1CCc3ccccc31)NC2 (centres unmarked) [Example 15, Indan-1-yl-(7-methoxy-3,4-dihydro-quinazolin-2-yl)-amine]	310 nM
COc1cc2c(cc1OC)N=C(NC1CCc3ccccc31)NC2 (centres unmarked) [Example 16, (6,7-Dimethoxy-3,4-dihydro-quinazolin-2-yl)-indan-1-yl-amine]	350 nM
Clc1ccc2c(c1)C(c1ccccc1)NC(NC1CCc3ccccc31)=N2 (centres unmarked) [Example 18, (6-Chloro-4-phenyl-3,4-dihydro-quinazolin-2-yl)-indan-1-yl-amine]	410 nM

Results, then the compound that gave them:

Ki	SMILES
25 nM	c1ccc2c(c1)CNC(N[C@@H]1CCc3ccccc31)=N2 [Example 1, (3,4-Dihydro-quinazolin-2-yl)-(R)-indan-1-yl-amine]
80 nM	CC1NC(NC2CCc3ccccc32)=Nc2ccccc21 (centres unmarked) [Example 9, Indan-1-yl-(4-methyl-3,4-dihydro-quinazolin-2-yl)-amine]
71 nM	CC1NC(NC2CCc3ccccc32)=Nc2cc(Cl)c(Cl)cc21 (centres unmarked) [Example 10, (6,7-Dichloro-4-methyl-3,4-dihydro-quinazolin-2-yl)-indan-1-yl-amine]
310 nM	c1ccc(C2NC(NC3CCc4ccccc43)=Nc3ccccc32)cc1 (centres unmarked) [Example 14, Indan-1-yl-(4-phenyl-3,4-dihydro-quinazolin-2-yl)-amine]
350 nM	c1ccc2c(c1)CNC(N[C@H]1CCc3ccccc31)=N2 [Example 17, (3,4-Dihydro-quinazolin-2-yl)-(S)-indan-1-yl-amine]
133 nM	c1ccc2c(c1)CC[C@H]2NC1=Nc2ccccc2C(c2ccsc2)N1 (stereo partly drawn) [Example 23, (R)-Indan-1-yl-(4-thiophen-3-yl-3,4-dihydro-quinazolin-2-yl)-amine]
293 nM	c1ccc2c(c1)CC[C@@H]2NC1=Nc2ccccc2C(c2ccsc2)N1 (stereo partly drawn) [Example 24, (S)-Indan-1-yl-(4-thiophen-3-yl-3,4-dihydro-quinazolin-2-yl)-amine]
863 nM	Cc1noc(C)c1C1NC(N[C@@H]2CCc3ccccc32)=Nc2ccccc21 (stereo partly drawn) [Example 25, [4-(3,5-Dimethyl-isoxazol-4-yl)-3,4-dihydro-quinazolin-2-yl]-(R)-indan-1-yl-amine]
1200 nM	Cc1noc(C)c1C1NC(N[C@H]2CCc3ccccc32)=Nc2ccccc21 (stereo partly drawn) [Example 26, [4-(3,5-Dimethyl-isoxazol-4-yl)-3,4-dihydro-quinazolin-2-yl]-(S)-indan-1-yl-amine]
